Results reported in patent US20220396565A1 (Hoffmann-La Roche Inc., priority 2020, published 2022).
Structures can show the parent of a compound that is named as a salt.

What follows are compounds tested on Acinetobacter baumannii ATCC17961 (assay: Antimicrobial susceptibility testing: 90% growth inhibitory concentration (IC90) determination, Iso-Sensitest broth). Conditions: Acinetobacter baumannii, ATCC17961, 90% growth inhibitory concentration, Acinetobacter baumannii ATCC17961, Iso-Sensitest broth; read-out: ATCC 17961 IC90.
Assay type: cell-based
Method: The in vitro antimicrobial activity of the compounds was determined according to the following procedure:
The assay used a 10-points Iso-Sensitest broth medium to measure quantitatively the in vitro activity of the compounds against Acinetobacter baumannii ATCC17978 or ATCC17961.
Stock compounds in DMSO were serially twofold diluted (e.g. range from 10 to 0.02 μM final concentration) in 384 wells microtiter plates and inoculated with 49 μl the bacterial suspension in Iso-Sensitest medium to have a final cell concentration of ˜5×10^(5) CFU/ml in a final volume/well of 50 ul/well. Microtiter plates were incubated at 35±2° C.
Bacterial cell growth was determined with the measurement of optical density at k=600 nm each 20 minutes over a time course of 16 h. Growth inhibition was calculated during the logarithmic growth of the bacterial cells with determination of the concentration inhibiting 50% (IC50) and 90% (IC90) of the growth.
Table 1 provides the 90% growth inhibitory concentrations (IC90) in micromoles per liter of the compounds of present invention obtained against the strain Acinetobacter baumannii ATCC17978 or ATCC17961.
With Cn1c(-c2ccc(OCF)c(F)c2Cl)cnc1C(=O)Nc1ccc(C(=O)N2CCC(C(=O)NC[C@@H]3CCNC3)CC2)c(Cl)c1 [Example 62, 1-[2-chloro-4-[[5-[2-chloro-3-fluoro-4-(fluoromethoxy)phenyl]-1-methyl-imidazole-2-carbonyl]amino]benzoyl]-N-[[(3R)-pyrrolidin-3-yl]methyl]piperidine-4-carboxamide formate] the IC90 was 60 nM. In the case of COc1ccc(-c2cnc(C(=O)Nc3ccc(C(=O)N4CCC(C(=O)NCC5CCN5)CC4)c(Cl)c3)n2C)c(F)c1F (stereo not shown) [Example 63, N-(azetidin-2-ylmethyl)-1-[2-chloro-4-[[5-(2,3-difluoro-4-methoxy-phenyl)-1-methyl-imidazole-2-carbonyl]amino]benzoyl] piperidine-4-carboxamide formate], the IC90 is reported as 90 nM. Compound COc1ccc(-c2cnc(C(=O)Nc3ccc(C(=O)N4CCC(C(=O)N[C@@H]5CCNC5)CC4)c(Cl)c3)n2C)c(F)c1F [Example 64, 1-[2-chloro-4-[[5-(2,3-difluoro-4-methoxy-phenyl)-1-methyl-imidazole-2-carbonyl]amino]benzoyl]-N-[(3R)-pyrrolidin-3-yl]piperidine-4-carboxamide formate] has an IC90 of 60 nM. Cn1c(-c2ccc(OCF)c(F)c2Cl)cnc1C(=O)Nc1ccc(C(=O)N2CCC(C(=O)N[C@H]3CCNC3)CC2)c(Cl)c1 [Example 65, 1-[2-chloro-4-[[5-[2-chloro-3-fluoro-4-(fluoromethoxy)phenyl]-1-methyl-imidazole-2-carbonyl]amino]benzoyl]-N-[(3S)-pyrrolidin-3-yl]piperidine-4-carboxamide formate] gave an IC90 of 50 nM. For COc1ccc(-c2cnc(C(=O)Nc3ccc(C(=O)N4CC(C(=O)N5CC(CN)C5)C4)c(Cl)c3)n2C)c(F)c1F [Example 66, N-[4-[3-[3-(aminomethyl)azetidine-1-carbonyl]azetidine-1-carbonyl]-3-chloro-phenyl]-5-(2,3-difluoro-4-methoxy-phenyl)-1-methyl-imidazole-2-carboxamide formate], the IC90 was 140 nM. For COc1ccc(-c2cnc(C(=O)Nc3ccc(C(=O)N4CCC(C(=O)NCCC(=O)O)CC4)c(Cl)c3)n2C)c(F)c1F [Example 67, 3-[[1-[2-chloro-4-[[5-(2,3-difluoro-4-methoxy-phenyl)-1-methyl-imidazole-2-carbonyl]amino]benzoyl]piperidine-4-carbonyl]amino]propanoic acid], the IC90 was 3300 nM. Compound COc1ccc(-c2cnc(C(=O)Nc3ccc(C(=O)N4CCC(C(=O)NCCCC(=O)O)CC4)c(Cl)c3)n2C)c(F)c1F [Example 68, 4-[[1-[2-chloro-4-[[5-(2,3-difluoro-4-methoxy-phenyl)-1-methyl-imidazole-2-carbonyl]amino]benzoyl]piperidine-4-carbonyl]amino]butanoic acid] has an IC90 of 2100 nM. With COc1ccc(-c2cnc(C(=O)Nc3ccc(C(=O)N4CC(C(=O)N5CCNCC5)C4)c(Cl)c3)n2C)c(F)c1F [Example 69, N-[3-chloro-4-[3-(piperazine-1-carbonyl)azetidine-1-carbonyl]phenyl]-5-(2,3-difluoro-4-methoxy-phenyl)-1-methyl-imidazole-2-carboxamide formate] the IC90 was 120 nM. COc1ccc(-c2cnc(C(=O)Nc3ccc(C(=O)N4CC(C(=O)N5C[C@H]6CNC[C@H]6C5)C4)c(Cl)c3)n2C)c(F)c1F [Example 70, N-[4-[3-[(3aR,6aS)-2,3,3a,4,6,6a-hexahydro-1H-pyrrolo[3,4-c]pyrrole-5-carbonyl]azetidine-1-carbonyl]-3-chloro-phenyl]-5-(2,3-difluoro-4-methoxy-phenyl)-1-methyl-imidazole-2-carboxamide formate] showed an IC90 of 140 nM. COc1ccc(-c2cnc(C(=O)Nc3ccc(C(=O)N4CCC(C(=O)N5C[C@H]6CCN[C@H]6C5)C4)c(Cl)c3)n2C)c(F)c1F (stereo partly drawn) [Example 71, N-[4-[3-[(3aR,6aR)-2,3,3a,4,6,6a-hexahydro-1H-pyrrolo[3,4-b]pyrrole-5-carbonyl]pyrrolidine-1-carbonyl]-3-chloro-phenyl]-5-(2,3-difluoro-4-methoxy-phenyl)-1-methyl-imidazole-2-carboxamide formate] gave an IC90 of 470 nM. COc1ccc(-c2cnc(C(=O)Nc3ccc(C(=O)N4CCC(C(=O)N[C@H]5CNC[C@@H]5O)CC4)c(Cl)c3)n2C)c(F)c1F [Example 72, 1-[2-chloro-4-[[5-(2,3-difluoro-4-methoxy-phenyl)-1-methyl-imidazole-2-carbonyl]amino]benzoyl]-N-[(3S,4S)-4-hydroxypyrrolidin-3-yl]piperidine-4-carboxamide formate] showed an IC90 of 50 nM. For Cc1cc(NC(=O)c2ncc(-c3ccc(OCC#N)c(F)c3F)n2C)ccc1C(=O)N1CCC(C(=O)N2CCO[C@H](CN)C2)CC1 [Example 83, (R)-N-(4-(4-(2-(aminomethyl)morpholine-4-carbonyl)piperidine-1-carbonyl)-3-methylphenyl)-5-(4-(cyanomethoxy)-2,3-difluorophenyl)-1-methyl-1H-imidazole-2-carboxamide 2,2,2-trifluoroacetate], the IC90 was 170 nM. With Cn1c(-c2ccc(OCC#N)c(F)c2F)cnc1C(=O)Nc1ccc(C(=O)N2CCC(C(=O)N3CC4(CNC4)C3)CC2)c(Cl)c1 [Example 85, N-(4-(4-(2,6-diazaspiro[3.3]heptane-2-carbonyl)piperidine-1-carbonyl)-3-chlorophenyl)-5-(4-(cyanomethoxy)-2,3-difluorophenyl)-1-methyl-1H-imidazole-2-carboxamide 2,2,2-trifluoroacetate] the IC90 was 150 nM. In the case of Cc1cc(NC(=O)c2ncc(-c3ccc(OCC#N)c(F)c3F)n2C)ccc1C(=O)N1CCC(C(=O)N2CCO[C@@H](CN)C2)CC1 [Example 87, (S)-N-(4-(4-(2-(aminomethyl)morpholine-4-carbonyl)piperidine-1-carbonyl)-3-methylphenyl)-5-(4-(cyanomethoxy)-2,3-difluorophenyl)-1-methyl-1H-imidazole-2-carboxamide 2,2,2-trifluoroacetate], the IC90 is reported as 120 nM. Compound Cn1c(-c2ccc(OCF)c(F)c2F)cnc1C(=O)Nc1ccc(C(=O)N2CCC(C(=O)NC3CCNCC3)CC2)c(Cl)c1 [Example 89, 1-(2-chloro-4-(5-(2,3-difluoro-4-(fluoromethoxy)phenyl)-1-methyl-1H-imidazole-2-carboxamido)benzoyl)-N-(piperidin-4-yl)piperidine-4-carboxamide 2,2,2-trifluoroacetate] has an IC90 of 50 nM. Cn1c(-c2ccc(OCF)c(F)c2F)cnc1C(=O)Nc1ccc(C(=O)N2CCC(C(=O)N[C@@H]3CCNC3)CC2)c(Cl)c1 [Example 90, (R)-1-(2-chloro-4-(5-(2,3-difluoro-4-(fluoromethoxy)phenyl)-1-methyl-1H-imidazole-2-carboxamido)benzoyl)-N-(pyrrolidin-3-yl)piperidine-4-carboxamide 2,2,2-trifluoroacetate] gave an IC90 of 40 nM. Cn1c(-c2ccc(OC(F)F)c(F)c2F)cnc1C(=O)Nc1ccc(C(=O)N2CCC(C(=O)N[C@@H]3CCNC3)CC2)c(Cl)c1 [Example 91, (R)-1-(2-chloro-4-(5-(4-(difluoromethoxy)-2,3-difluorophenyl)-1-methyl-1H-imidazole-2-carboxamido)benzoyl)-N-(pyrrolidin-3-yl)piperidine-4-carboxamide formate] was tested, and the IC90 was 40 nM.

Same assay, conditions: Acinetobacter baumannii, ATCC17961, read-out: ATCC 17961 IC90
With CNCCNC(=O)C1CCN(C(=O)c2ccc(NC(=O)c3ncc(-c4ccc(OCC#N)c(F)c4F)n3C)cc2Cl)CC1 [Example 82, 1-(2-chloro-4-(5-(4-(cyanomethoxy)-2,3-difluorophenyl)-1-methyl-1H-imidazole-2-carboxamido)benzoyl)-N-(2-(methylamino)ethyl) piperidine-4-carboxamide formate] the IC90 was 70 nM. Cn1c(-c2ccc(OCC#N)c(F)c2F)cnc1C(=O)Nc1ccc(C(=O)N2CCC(C(=O)NCC(O)CN)CC2)c(Cl)c1 (stereo not shown) [Example 84, N-(3-amino-2-hydroxypropyl)-1-(2-chloro-4-(5-(4-(cyanomethoxy)-2,3-difluorophenyl)-1-methyl-1H-imidazole-2-carboxamido)benzoyl) piperidine-4-carboxamide 2,2,2-trifluoroacetate] gave an IC90 of 90 nM. In the case of Cn1c(-c2ccc(OCC#N)c(F)c2F)cnc1C(=O)Nc1ccc(C(=O)N2CCC(C(=O)N3CCN[C@H](CO)C3)CC2)c(Cl)c1 [Example 86, (S)-N-(3-ehloro-4-(4-(3-(hydroxymethyl)piperazine-1-carbonyl)piperidine-1-carbonyl)phenyl)-5-(4-(cyanomethoxy)-2,3-difluorophenyl)-1-methyl-1H-imidazole-2-carboxamide 2,2,2-trifluoroacetate], the IC90 is reported as 100 nM. For Cn1c(-c2ccc(OCF)c(F)c2F)cnc1C(=O)Nc1ccc(C(=O)N2CCC(C(=O)NCCN)CC2)c(Cl)c1 [Example 88, N-(2-aminoethyl)-1-(2-chloro-4-(5-(2,3-difluoro-4-(fluoromethoxy)phenyl)-1-methyl-1H-imidazole-2-carboxamido)benzoyl) piperidine-4-carboxamide 2,2,2-trifluoroacetate], the IC90 was 50 nM. With Cn1c(-c2ccc(OC(F)F)c(F)c2F)cnc1C(=O)Nc1ccc(C(=O)N2CCC(C(=O)NCCN)CC2)c(Cl)c1 [Example 92, N-(2-aminoethyl)-1-(2-chloro-4-(5-(4-(difluoromethoxy)-2,3-difluorophenyl)-1-methyl-1H-imidazole-2-carboxamido)benzoyl) piperidine-4-carboxamide formate] the IC90 was 60 nM.
